30 molecules from PubChem BioAssay (NCI) can be followed below.

Common to all, as to assay: NCI-60 cell line screen, 48 h
In assay [1] the test system is LOX IMVI melanoma.
The subject of assay [2] is SK-MEL-2 melanoma.
Assay [3] has as its system OVCAR-4 ovarian.
Assay [4] deals with A498 renal.
Assay [5] has as its system KM12 colon.
Assay [6] has as its system SF-268 CNS.
Assay [7] concerns SNB-19 CNS.
Assay [8] relates to SNB-75 CNS.
Assay [9] has as its system MDA-MB-231 breast.
Assay [10] has as its system DU-145 prostate.

SMILES strings stand for the structures.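 Protocol summary: plate cells (96-well), add compound at 5 concentrations, incubate 48 h, interpolate endpoints linearly. GI50 is the concentration that inhibits growth by half. TGI is the concentration that stops growth completely.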 Where only a bound is given, the exact number is not on record here.

In the case of `CN1C/C(=C\c2ccccc2)C2=NN(C(N)=S)[C@H](c3ccccc3)[C@@H]2C1`, the TGI in [1], in [2], in assay [3], in assay [4], in [5] and in assay [6] was above 100 µM each time. Besides, the TGI in assay [7] is above 100 µM.
On to `CCN(CC)C(=O)Cc1[nH][nH]c(=O)c1C(=O)N(CC)CC`, for which the TGI in assay [1], in assay [2], in [3], in assay [4], in assay [8] and in [5] was above 100 µM in each case. The TGI in assay [6] and in [7] was above 100 µM each time.
As for `COc1ccc2nc(-c3ccc(N)cc3)sc2c1`, the TGI in assay [2], in [3], in [4], in assay [8], in assay [5] and in [9] was above 100 µM in each case. Further, the TGI in assay [6] and in [7] was above 100 µM in each case.
Turning to `Cc1ccc(-c2ccc3c(c2)Sc2ccccc2O3)n1C`, the TGI in assay [1] was above 100 µM; in assay [2], 4.26 µM; in assay [3] it was above 100 µM; in assay [4], 34 µM; in assay [5] it was above 43.2 µM; in assay [9] it was above 100 µM. The TGI is above 33.9 µM in [6], above 41.5 µM in [10] and above 100 µM in [7].
With `CCOC(=O)CN(CC)C(=O)NC12CC3CC(CC(C3)C1)C2`, the TGI in assay [1] was 409 µM; in assay [2], 281 µM; in [3], 568 µM; in assay [4] it was 413 µM; in [8], 316 µM; in assay [5], above 750 µM. In addition, the TGI in assay [6] and in assay [7] was above 750 µM in each case.
With `CC(NC(CC12CC3CC(CC(C3)C1)C2)C(N)=O)c1ccccc1` (stereo not given), the TGI in [1] was 30.7 µM; in assay [3], 98.5 µM; in assay [4], 31.5 µM; in assay [9], above 100 µM; in assay [6], 61.2 µM; in assay [10], above 100 µM. For the same molecule, in assay [7], the TGI is above 100 µM.
Regarding `CCCC(O)c1ccc2[nH]c3c(C)cc([N+](=O)[O-])c(C)c3c2c1` (stereo not given), the TGI in assay [1], in assay [2], in [3], in assay [8], in assay [5] and in [6] was above 100 µM each time. The molecule also yielded a TGI in assay [7] above 100 µM.
`CCCNC(=O)c1cc(OC)c(OC)cc1NC(=O)C12CC3CC(CC(C3)C1)C2`: the TGI in [1] came to 39.7 µM; in assay [2] it was 29.5 µM; in assay [3] it was 33.6 µM; in assay [4] it was 31.6 µM; in [5], 32 µM; in assay [9] it was 31.4 µM. For the same molecule, the TGI was determined as 35 µM in [6], 35.5 µM in assay [10] and 30 µM in assay [7].
Regarding `CCOC(=O)c1c(N2CCN(C)CC2)[nH]c(=O)c(C(c2c(Cl)cccc2Cl)c2c(O)c(C(=O)OCC)c(N3CCN(C)CC3)[nH]c2=O)c1O`, the TGI in assay [1] is above 100 µM; in [2], 53.2 µM; in assay [3] it was 38.4 µM; in [4] it was 39.8 µM; in assay [5], 49.7 µM; in assay [9] it was 55.1 µM. In addition, the TGI is 56.5 µM in assay [6], 38.3 µM in [10] and 37.2 µM in assay [7].
For the molecule `CC[C@@]1(O)C(=O)OCc2c1cc1n(c2=O)Cc2c-1nc1ccc(N)cc1c2CC[Si](C)(C)C`, the TGI is below 0.01 µM in assay [1]; 0.427 µM in [2]; 5.94 µM in assay [3]; 0.0189 µM in assay [4]; 3.68 µM in assay [5]; 0.428 µM in assay [9]. The TGI is 1.76 µM in assay [6], 1.68 µM in assay [10] and 11.1 µM in assay [7].
As for `CN(C)CCCn1c(-c2ccc(Br)cc2)csc1=Nc1ccccc1`, the TGI in [2] is 31 µM; in assay [3], 38 µM; in assay [4], 28.3 µM; in assay [8] it was 29.8 µM; in [5] it was 26.4 µM; in [9], above 100 µM. The TGI in [6] was determined as 33.6 µM; in assay [7], 31.6 µM.
For the molecule `COC(OC)c1cccc2c1C(=O)CCC1(CC2)OCCCCO1`, the TGI in assay [1], in assay [2], in assay [3], in assay [4], in assay [8] and in assay [5] was above 100 µM in each case. Also, the TGI in assay [6] and in assay [7] was above 100 µM in each case.
`c1cc(CSP234N5CCN2CCN3CCN4CC5)cc(CSP234N5CCN2CCN3CCN4CC5)c1`: the TGI in [1] was 35.1 µM; in assay [2], 45.1 µM; in assay [3] it was above 100 µM; in assay [8], 76.4 µM; in assay [5], 47.1 µM; in assay [9], 38.2 µM. For the same molecule, the TGI in [6], in assay [10] and in [7] was above 100 µM in each case.
`COc1ccc(N2C(=O)[C@@H]3[C@@H]4CC(C)CC[C@@H]4c4c([nH]c5ccccc45)[C@@H]3C2=O)cc1` (stereo not given in full): the TGI was above 87.6 µM in assay [1]; 28.5 µM in [2]; 37 µM in assay [3]; 35.9 µM in [4]; 12.4 µM in [8]; above 100 µM in assay [5]. Moreover, the results for the TGI in [6] and in [7] were 37.9 µM and 29.6 µM, respectively.
`C/C(=C\COP(=O)(O)OP(=O)(O)O)CC/C=C(\C)CNc1c(F)c(F)c(F)c(F)c1F`: the TGI was above 100 µM in assay [1]; above 100 µM in assay [2]; above 100 µM in assay [3]; above 31.6 µM in assay [8]; above 100 µM in assay [5]; above 100 µM in assay [9]. Moreover, the TGI in assay [6], in [10] and in [7] was above 100 µM in each case.
In the case of `NS(=O)(=O)c1ccc(Nc2c3ccccc3nc3c(C(=O)NC(CO)(CO)CO)cccc23)cc1`, the TGI came to 0.286 µM in assay [1]; 0.396 µM in [2]; 0.193 µM in [3]; 0.466 µM in assay [4]; 0.309 µM in assay [5]; 0.434 µM in [9]. Also, the TGI was 0.486 µM in [6], 0.812 µM in assay [10] and 0.783 µM in assay [7].
As to `COc1ccc(/C=C(\C#N)c2ccccn2)cc1OC`, the TGI in [2] was above 100 µM; in [3], above 100 µM; in [8], 84.9 µM; in [5] it was above 100 µM; in [6], above 100 µM; in assay [10], above 100 µM. The molecule further displayed a TGI in [7] above 100 µM.
On to `CCCOC(=O)CCC(NC(=O)c1ccc(Nc2nc3ccccc3nc2-c2cccs2)cc1)C(=O)OCCC` (stereo not given), for which the TGI in assay [1] was above 100 µM; in assay [2] it was 59.9 µM; in assay [3], above 100 µM; in assay [5], above 100 µM; in [6] it was above 100 µM; in [7], above 100 µM.
For `c1ccc(-c2cc(-c3ccccc3)nc(-c3ccncc3)c2)cc1`, the TGI in assay [1], in [2], in [3], in assay [5], in [9] and in assay [6] was above 100 µM throughout. The TGI in assay [10] and in [7] was above 100 µM each time.
Regarding `O=c1[nH]nc(-c2cccc([N+](=O)[O-])c2)[nH]1`, the TGI in assay [1], in assay [2], in assay [3], in assay [4], in assay [8] and in assay [5] was above 100 µM each time. Further, the TGI in assay [6], in assay [10] and in [7] was above 100 µM each time.
As for `C=CCSC1=N/C(=C\c2ccc(C)cc2)C(=O)N1CC=C`, the TGI in assay [1] was 82.3 µM; in assay [2] it was 61 µM; in assay [3], above 100 µM; in assay [4], 51.8 µM; in assay [5], 69.1 µM; in assay [9] it was above 100 µM. Also, the TGI in [6], in assay [10] and in [7] was above 100 µM throughout.
Take `COC1=CC(=O)[C@@]2(C)C(C)[C@H](c3ccccc3)[C@H]2C1=O` (stereo not given in full): the TGI in assay [1], in assay [2], in assay [3], in assay [4], in [8] and in assay [5] was above 100 µM each time. For the same molecule, the TGI in assay [6] and in [7] was above 100 µM throughout.
Take `O=S(c1ccc(O)cc1)c1ccc(O)cc1`: the TGI in assay [1], in [2], in assay [3], in assay [8], in assay [5] and in [6] was above 100 µM throughout. This molecule also registered a TGI in [7] above 100 µM.
Regarding `O=C(NCC(O)COc1ccccc1)c1ccccc1O` (stereo not given), the TGI in assay [1], in assay [2], in [3], in assay [4], in assay [5] and in assay [9] was above 100 µM each time. Further, the TGI in [10] and in assay [7] was above 100 µM throughout.
Regarding `CCCCCCCC(=O)NC(C)(C)C(=O)NCC(=O)NC(CC(C)C)C(=O)NC(C)(C)C(=O)NCC(=O)NCC(=O)NC(CC(C)C)C(=O)NC(C)(C)C(=O)NCC(=O)NC(C(=O)NC(CO)CC(C)C)C(C)CC` (stereo not given), the TGI in [1] was 6.88 µM; in assay [2], 5.85 µM; in [3], 7.9 µM; in [8] it was 7.28 µM; in assay [5] it was 5.15 µM; in assay [9] it was 7.38 µM. Besides, the TGI worked out at 7.5 µM in assay [6], 9.53 µM in [10] and 6.83 µM in assay [7].
As for `CC(=O)OC1CCC2(C)C(CCC3C2CCC2(C)C(c4ccc(=O)oc4)C(OC(C)=O)CC32O)C1` (stereo not given), the TGI in assay [1] was determined as 0.38 µM; in [2] it was 0.0911 µM; in [3] it was 0.0253 µM; in [4] it was 0.161 µM; in assay [8], 0.0801 µM; in [5], 0.161 µM. Further, the TGI in assay [6] is 0.0341 µM; in [7], 0.33 µM.
`CC(=O)N(C(=O)CC(=O)N1N=C(C)C(N=Nc2cccc([N+](=O)[O-])c2)C1=O)c1ccc(Cl)cc1` (stereo not given): the TGI in assay [1], in assay [3], in [8], in [5], in assay [9] and in assay [6] was above 10 µM each time. The TGI in assay [10] and in [7] was above 10 µM throughout.
Regarding `C=CC[PH+](c1ccccc1)c1ccccc1.C=CC[PH+](c1ccccc1)c1ccccc1.[Pt+2].[S-]c1nc2ccccc2[nH]1.[S-]c1nc2ccccc2[nH]1`, the GI50 was 2.25 µM in assay [2]; 2.56 µM in [3]; 1.72 µM in [4]; 1.2 µM in assay [8]; 2.77 µM in assay [6]; 3.33 µM in assay [10]. Also, the TGI in [2] is 5.36 µM; in assay [3], above 100 µM; in [4], 4.98 µM; in assay [8], 3.89 µM; in assay [6], above 100 µM; in assay [10] it was 42.8 µM.
With `O=C1OCc2nc3c(c(-c4ccccc4C(F)(F)F)c21)C(=O)OC3`, the TGI in assay [1], in assay [2], in assay [4], in [5], in assay [6] and in assay [7] was above 100 µM throughout.
For `O=C1C=C2SC3C[C@@]24CC1(O)[N+]1=c2c4c(c(O)c4c2=C(C=N4)CC1)N3`, the TGI in assay [1] is 1.55 µM; in assay [2], 2.77 µM; in [3], 2.53 µM; in assay [4], 3.33 µM; in assay [8], 3.23 µM; in [5] it was 2.91 µM. Also, the TGI in assay [6] is 2.19 µM; in assay [7] it was 3.12 µM.
